Laboratory results: patent US10040781B2, “Tank-binding kinase inhibitor compounds” (Gilead Sciences, Inc., priority 2014, dated 2018)
Where two headings read alike, the source gives them in different places.

Legend:
IKKε = IKKε (Homo sapiens (Human), UniProt Q14164); assay: IKKε TR-FRET enzymatic assay; format: biochemical; conditions: read-out: IKKe IC50
hJAK2 = hJAK2 (Homo sapiens (Human), UniProt O60674); assay: hJAK2 LANCE TR-FRET enzymatic assay; format: biochemical; conditions: read-out: JAK2 IC50
TBK1 = TBK1 (Homo sapiens (Human), UniProt Q9UHD2); assay: TBK1 TR-FRET enzymatic assay;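 note: phosphorylation of a biotinylated Ser/Thr peptide by purified full-length recombinant TBK1, read by TR-FRET after 240 min at 25 °C, IC50 is the geometric mean of at least four runs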
[1] = TR-FRET, 2×Km ATP, geometric mean of minimum four determinations

Chain of IKKε (Q14164 whole entry): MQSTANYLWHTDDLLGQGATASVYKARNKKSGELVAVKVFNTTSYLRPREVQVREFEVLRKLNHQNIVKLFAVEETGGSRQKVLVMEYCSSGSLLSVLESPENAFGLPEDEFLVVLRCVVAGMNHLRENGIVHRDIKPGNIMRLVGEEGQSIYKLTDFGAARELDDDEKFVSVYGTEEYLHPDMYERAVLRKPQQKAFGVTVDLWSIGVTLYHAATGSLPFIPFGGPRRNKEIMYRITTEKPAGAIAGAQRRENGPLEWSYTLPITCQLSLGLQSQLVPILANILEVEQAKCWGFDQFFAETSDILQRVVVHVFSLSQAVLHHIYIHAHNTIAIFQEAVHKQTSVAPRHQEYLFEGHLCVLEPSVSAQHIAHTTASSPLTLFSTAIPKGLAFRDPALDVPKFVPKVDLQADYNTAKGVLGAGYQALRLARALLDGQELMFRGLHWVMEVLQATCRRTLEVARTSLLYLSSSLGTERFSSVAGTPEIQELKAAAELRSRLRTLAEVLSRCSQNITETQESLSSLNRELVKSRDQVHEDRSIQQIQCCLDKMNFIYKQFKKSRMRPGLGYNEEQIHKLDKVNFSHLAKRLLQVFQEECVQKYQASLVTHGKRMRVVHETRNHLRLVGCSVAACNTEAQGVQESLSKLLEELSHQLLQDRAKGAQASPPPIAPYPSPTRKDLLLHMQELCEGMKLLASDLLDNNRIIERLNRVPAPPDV
Chain of TBK1 (Q9UHD2 whole entry): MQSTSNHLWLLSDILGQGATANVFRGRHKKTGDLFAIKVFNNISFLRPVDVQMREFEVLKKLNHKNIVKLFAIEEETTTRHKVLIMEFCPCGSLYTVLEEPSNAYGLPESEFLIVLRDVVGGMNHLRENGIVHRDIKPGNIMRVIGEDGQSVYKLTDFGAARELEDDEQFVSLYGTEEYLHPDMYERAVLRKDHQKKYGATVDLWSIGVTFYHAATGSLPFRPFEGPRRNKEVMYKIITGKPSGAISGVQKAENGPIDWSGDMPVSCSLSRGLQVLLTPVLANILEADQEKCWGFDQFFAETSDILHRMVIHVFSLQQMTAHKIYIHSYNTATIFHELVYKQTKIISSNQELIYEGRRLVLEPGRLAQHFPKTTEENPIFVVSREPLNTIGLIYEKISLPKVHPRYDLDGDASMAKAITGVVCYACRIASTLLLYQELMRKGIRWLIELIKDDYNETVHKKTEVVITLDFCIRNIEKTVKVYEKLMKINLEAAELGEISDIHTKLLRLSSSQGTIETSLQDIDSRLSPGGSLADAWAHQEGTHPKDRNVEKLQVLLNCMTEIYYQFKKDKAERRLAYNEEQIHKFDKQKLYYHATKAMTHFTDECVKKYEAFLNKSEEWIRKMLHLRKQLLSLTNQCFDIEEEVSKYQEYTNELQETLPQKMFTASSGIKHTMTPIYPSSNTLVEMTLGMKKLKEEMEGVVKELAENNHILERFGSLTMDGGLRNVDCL
Chain of hJAK2 (O60674 whole entry): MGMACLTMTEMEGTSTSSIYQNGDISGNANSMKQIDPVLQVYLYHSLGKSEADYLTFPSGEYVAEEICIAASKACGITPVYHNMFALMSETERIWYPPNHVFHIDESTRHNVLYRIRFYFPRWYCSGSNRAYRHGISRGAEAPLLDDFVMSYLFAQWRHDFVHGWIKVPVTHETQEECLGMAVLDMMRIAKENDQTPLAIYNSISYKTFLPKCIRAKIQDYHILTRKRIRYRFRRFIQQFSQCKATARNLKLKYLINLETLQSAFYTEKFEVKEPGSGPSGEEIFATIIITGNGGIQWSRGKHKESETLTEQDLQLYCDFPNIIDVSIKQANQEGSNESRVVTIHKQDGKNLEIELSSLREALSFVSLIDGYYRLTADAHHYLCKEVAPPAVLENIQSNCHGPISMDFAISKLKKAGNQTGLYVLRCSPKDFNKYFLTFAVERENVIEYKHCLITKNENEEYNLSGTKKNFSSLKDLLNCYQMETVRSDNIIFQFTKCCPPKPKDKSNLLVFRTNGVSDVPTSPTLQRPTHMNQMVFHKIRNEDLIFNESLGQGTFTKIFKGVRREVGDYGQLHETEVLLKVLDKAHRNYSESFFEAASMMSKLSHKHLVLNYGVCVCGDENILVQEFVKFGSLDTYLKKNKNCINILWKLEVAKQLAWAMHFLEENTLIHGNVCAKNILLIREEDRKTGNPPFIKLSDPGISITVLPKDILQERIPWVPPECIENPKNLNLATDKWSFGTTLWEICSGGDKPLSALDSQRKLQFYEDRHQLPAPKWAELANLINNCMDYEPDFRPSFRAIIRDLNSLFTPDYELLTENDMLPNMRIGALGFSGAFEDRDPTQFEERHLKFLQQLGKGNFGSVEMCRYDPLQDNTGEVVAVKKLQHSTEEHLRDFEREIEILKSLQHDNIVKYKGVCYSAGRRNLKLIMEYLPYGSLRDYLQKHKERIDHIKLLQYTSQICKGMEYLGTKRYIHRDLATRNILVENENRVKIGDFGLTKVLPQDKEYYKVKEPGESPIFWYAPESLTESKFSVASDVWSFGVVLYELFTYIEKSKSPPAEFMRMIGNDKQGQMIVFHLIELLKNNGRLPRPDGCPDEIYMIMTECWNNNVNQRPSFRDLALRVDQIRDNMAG

Row | Compound | IC50 (IKKε) | IC50 (hJAK2) | IC50 (TBK1) | IC50 (IKKε; [1])
1 | CC(C)(O)Cn1cc(Nc2ncnc(-c3ccc(O[C@H]4CCN(C(=O)[C@@H](O)CO)C[C@H]4F)c(C#N)c3)n2)cn1 [Example 512, 2-(((3R,4S)-1-((S)-2,3-dihydroxypropanoyl)-3-fluoropiperidin-4-yl)oxy)-5-(4-((1-(2-hydroxy-2-methylpropyl)-1H-pyrazol-4-yl)amino)-1,3,5-triazin-2-yl)benzonitrile] | – | ≥ 1 µM | 0.002 µM | 0.002 µM
2 | N#Cc1cc(-c2ncnc(Nc3ccc(N4CCN(C5COC5)CC4)cc3)n2)ccc1O[C@H]1CCN(C(=O)[C@H]2CCCCN2)C[C@H]1F [Example 129, 2-(((3R,4S)-3-fluoro-1-((R)-piperidine-2-carbonyl)piperidin-4-yl)oxy)-5-(4-((4-(4-(oxetan-3-yl)piperazin-1-yl)phenyl)amino)-1,3,5-triazin-2-yl)benzonitrile] | 0.619 µM | ≥ 1 µM | 0.334 µM | –
3 | CC(C)(C)n1cc(Nc2ncnc(-c3ccc(O[C@H]4CCN(C(=O)CO)C[C@H]4F)c(C#N)c3)n2)cn1 [Example 420, 5-(4-((1-(tert-butyl)-1H-pyrazol-4-yl)amino)-1,3,5-triazin-2-yl)-2-(((3R,4S)-3-fluoro-1-(2-hydroxyacetyl)piperidin-4-yl)oxy)benzonitrile] | – | 0.19 µM | 0.002 µM | 0.002 µM
4 | N#Cc1cc(-c2ncnc(Nc3ccc(N4CCN(C5COC5)CC4)cc3)n2)ccc1N1CCC2(CCO2)C1 (stereo not drawn) [Example 207, 5-(4-((4-(4-(oxetan-3-yl)piperazin-1-yl)phenyl)amino)-1,3,5-triazin-2-yl)-2-(1-oxa-6-azaspiro[3.4]octan-6-yl)benzonitrile] | 0.128 µM | 0.258 µM | 0.038 µM | –
5 | C[C@@H]1CN(c2ccc(Nc3ncnc(-c4ccc(O[C@H]5CCN(C(=O)[C@@H](C)O)CC5(F)F)c(C#N)c4)n3)cc2)CCN1C1COC1 [Example 248, 2-(((S)-3,3-difluoro-1-((R)-2-hydroxypropanoyl)piperidin-4-yl)oxy)-5-(4-((4-((R)-3-methyl-4-(oxetan-3-yl)piperazin-1-yl)phenyl)amino)-1,3,5-triazin-2-yl)benzonitrile] | 0.003 µM | 0.187 µM | 0.003 µM | –
6 | C[C@H]1CN(C2COC2)CCN1c1ccc(Nc2ncnc(-c3ccc(O[C@H]4CCN(C(=O)c5cnn[nH]5)C[C@H]4F)c(C#N)c3)n2)cc1 [Example 255, 2-(((3R,4S)-3-fluoro-1-(1H-1,2,3-triazole-5-carbonyl)piperidin-4-yl)oxy)-5-(4-((4-((S)-2-methyl-4-(oxetan-3-yl)piperazin-1-yl)phenyl)amino)-1,3,5-triazin-2-yl)benzonitrile] | 0.002 µM | 0.227 µM | 0.004 µM | –
7 | C[C@H](O)C(=O)N1CC[C@H](Oc2ccc(-c3ncnc(Nc4scnc4CO)n3)cc2C#N)[C@H](F)C1 [Example 572, 2-(((3R,4S)-3-fluoro-1-((S)-2-hydroxypropanoyl)piperidin-4-yl)oxy)-5-(4-((4-(hydroxymethyl)thiazol-5-yl)amino)-1,3,5-triazin-2-yl)benzonitrile] | – | ≥ 1 µM | 0.036 µM | 0.021 µM
8 | C[C@H](O)C(=O)N1CC[C@H](Oc2ccc(-c3ncnc(Nc4cn(C)nc4CO)n3)cc2C#N)[C@H](F)C1 [Example 564, 2-(((3R,4S)-3-fluoro-1-((S)-2-hydroxyproanoyl)piperidin-4-yl)oxy)-5-(4-((3-(hydroxymethyl)-1-methyl-1H-pyrazol-4-yl)amino)-1,3,5-triazin-2-yl)benzonitrile] | – | ≥ 1 µM | 0.092 µM | 0.109 µM
9 | C[C@H](O)C(=O)N1CC[C@H](Oc2ccc(-c3ncnc(Nc4ccc(N5CC6(COC6)C5)cc4)n3)cc2C#N)[C@H](F)C1 [Example 364, 5-(4-((4-(2-oxa-6-azaspiro[3.3]heptan-6-yl)phenyl)amino)-1,3,5-triazin-2-yl)-2-(((3R,4S)-3-fluoro-1-((S)-2-hydroxypropanoyl)piperidin-4-yl)oxy)benzonitrile] | 0.004 µM | 0.634 µM | 0.005 µM | –
10 | N#Cc1cc(-c2ncnc(Nc3ccc(N4CCN(C5COC5)CC4)cc3)n2)ccc1O[C@H]1CCN(C(=O)c2cocn2)C[C@H]1F [Example 477, 2-(((3R,4S)-3-fluoro-1-(oxazole-4-carbonyl)piperidin-4-yl)oxy)-5-(4-((4-(4-(oxetan-3-yl)piperazin-1-yl)phenyl)amino)-1,3,5-triazin-2-yl)benzonitrile] | – | 0.526 µM | 0.003 µM | 0.002 µM
11 | N#Cc1cc(-c2ncnc(Nc3ccc(N4CCN(C5COC5)CC4)cc3)n2)ccc1O[C@H]1CCN(C(=O)[C@@H]2CCCCN2)C[C@H]1F [Example 131, 2-(((3R,4S)-3-fluoro-1-((S)-piperidine-2-carbonyl)piperidin-4-yl)oxy)-5-(4-((4-(4-(oxetan-3-yl)piperazin-1-yl)phenyl)amino)-1,3,5-triazin-2-yl)benzonitrile] | 0.175 µM | ≥ 1 µM | 0.101 µM | –

Next, values leading:

Row | IC50 (IKKε) | IC50 (hJAK2) | IC50 (TBK1) | IC50 (IKKε; [1]) | Compound
12 | 0.047 µM | 0.032 µM | 0.011 µM | – | N#Cc1cc(-c2ncnc(Nc3ccc(N4CCN(C5COC5)CC4)cc3)n2)ccc1NC1CCOCC1 [Example 121, 5-(4-((4-(4-(oxetan-3-yl)piperazin-1-yl)phenyl)amino)-1,3,5-triazin-2-yl)-2-((tetrahydro-2H-pyran-4-yl)amino)benzonitrile]
13 | – | 0.799 µM | 0.016 µM | 0.092 µM | N#Cc1cc(-c2ncnc(Nc3ccc(N4CCN(C5COC5)CC4)cc3)n2)ccc1O[C@H]1CCN(C(=O)C2CCNC2=O)C[C@H]1F (stereo partly drawn) [Example 551, 2-(((3R,4S)-3-fluoro-1-(2-oxopyrrolidine-3-carbonyl)piperidin-4-yl)oxy)-5-(4-((4-(4-(oxetan-3-yl)piperazin-1-yl)phenyl)amino)-1,3,5-triazin-2-yl)benzonitrile]
14 | 0.009 µM | 0.122 µM | 0.006 µM | – | N#Cc1cc(-c2ncnc(Nc3ccc(N4CCN(C5COC5)CC4)cc3)n2)ccc1O[C@H]1CCN(C(=O)c2[nH]ncc2N)C[C@H]1F [Example 391, 2-(((3R,4S)-1-(4-amino-1H-pyrazole-5-carbonyl)-3-fluoropiperidin-4-yl)oxy)-5-(4-((4-(4-(oxetan-3-yl)piperazin-1-yl)phenyl)amino)-1,3,5-triazin-2-yl)benzonitrile]
15 | 0.008 µM | 0.313 µM | 0.004 µM | – | N#Cc1cc(-c2ncnc(Nc3ccc(N4CCN(C5COC5)CC4)cc3)n2)ccc1OCC1CCOCC1 [Example 285, 5-(4-((4-(4-(oxetan-3-yl)piperazin-1-yl)phenyl)amino)-1,3,5-triazin-2-yl)-2-((tetrahydro-2H-pyran-4-yl)methoxy)benzonitrile]
16 | – | ≥ 1 µM | 0.038 µM | 0.051 µM | CC(C)(O)CC(=O)N1CC[C@H](Oc2ccc(-c3ncnc(Nc4ccc(N5CCN(C6COC6)CC5)cc4)n3)cc2C#N)[C@H](F)C1 [Example 553, 2-(((3R,4S)-3-fluoro-1-(3-hydroxy-3-methylbutanoyl)piperidin-4-yl)oxy)-5-(4-((4-(4-(oxetan-3-yl)piperazin-1-yl)phenyl)amino)-1,3,5-triazin-2-yl)benzonitrile]
17 | – | 0.135 µM | 0.003 µM | 0.001 µM | N#Cc1cc(-c2ncnc(Nc3ccc(N4CCN(C5COC5)CC4)cc3)n2)ccc1O[C@H]1CCN(C(=O)NO)C[C@H]1F [Example 478, (3R,4S)-4-(2-cyano-4-(4-((4-(4-(oxetan-3-yl)piperazin-1-yl)phenyl)amino)-1,3,5-triazin-2-yl)phenoxy)-3-fluoro-N-hydroxypiperidine-1-carboxamide]
18 | – | 0.068 µM | 0.002 µM | 0.001 µM | COc1cc(Nc2ncnc(-c3ccc(O[C@H]4CCN(C(=O)[C@H](C)O)CC4(F)F)c(C#N)c3)n2)ccc1N1CCN(C2COC2)CC1 [Example 561, 2-(((S)-3,3-difluoro-1-((S)-2-hydroxypropanoyl)piperidin-4-yl)oxy)-5-(4-((3-methoxy-4-(4-(oxetan-3-yl)piperazin-1-yl)phenyl)amino)-1,3,5-triazin-2-yl)benzonitrile]
19 | 0.003 µM | 0.233 µM | 0.002 µM | – | N#Cc1cc(-c2ncnc(Nc3ccc(N4CCN(C5COC5)CC4)cc3)n2)ccc1O[C@H]1CCN(C(=O)[C@@H]2COC(=O)N2)C[C@H]1F [Example 333, 2-(((3R,4S)-3-fluoro-1-((S)-2-oxooxazolidine-4-carbonyl)piperidin-4-yl)oxy)-5-(4-((4-(4-(oxetan-3-yl)piperazin-1-yl)phenyl)amino)-1,3,5-triazin-2-yl)benzonitrile]
20 | 0.014 µM | > 1 µM | 0.005 µM | – | C[C@H](O)C(=O)N1CCC(Oc2ccc(-c3ncnc(Nc4ccc(N5CCN(C6COC6)CC5)cc4)n3)cc2C#N)CC1 [Example 15, (S)-2-((1-(2-hydroxypropanoyl)piperidin-4-yl)oxy)-5-(4-((4-(4-(oxetan-3-yl)piperazin-1-yl)phenyl)amino)-1,3,5-triazin-2-yl)benzonitrile]
21 | 0.002 µM | 0.068 µM | 0.001 µM | – | COc1cc(Nc2ncnc(-c3ccc(OC4CCOCC4)c(C#N)c3)n2)ccc1N1CCN(C(C)=O)CC1 [Example 32, 5-(4-((4-(4-acetylpiperazin-1-yl)-3-methoxyphenyl)amino)-1,3,5-triazin-2-yl)-2-((tetrahydro-2H-pyran-4-yl)oxy)benzonitrile]
22 | – | 0.055 µM | 0.004 µM | 0.003 µM | COc1cc(Nc2ncnc(-c3ccc(O[C@@H]4CCC(=O)NC4)c(C#N)c3)n2)ccc1N1CCN(C2COC2)CC1 [Example 531, (R)-5-(4-((3-methoxy-4-(4-(oxetan-3-yl)piperazin-1-yl)phenyl)amino)-1,3,5-triazin-2-yl)-2-((6-oxopiperidin-3-yl)oxy)benzonitrile]
